Measured values as given in patent US5906831A, “Controlled release composition forming a reversed micellar (L2) structure or a normal micellar (L1) structure” (GS Development AB, priority 1994, dated 1999).

How the values were obtained:
[1] = visual inspection of mixtures of monocaproin with polar solvents (miscibility); type: physicochemical
Description: Many galenic formulations of drugs contain polar solvents.

[2] = diluted water solution; cited from earlier work
[3] = all compositions, in water; cited from earlier work

## CCCCCC(=O)OCC(O)CO (stereo not drawn) [monocaproin, glycerolmonohexanoate]
[1]; 5% Ethanol / 5% Propylene Glycol (w/w), 90% monocaproin
  Appearance: clear, low viscous
[1]; 10% (w/w) Ethanol, 90% monocaproin
  Appearance: clear, low viscous
[1]; 10% (w/w) Propylene Glycol, 90% monocaproin
  Appearance: clear, low viscous
[1]; 90% (w/w) Ethanol, 10% monocaproin
  Appearance: clear, low viscous
[2]
  critical micellar concentration (cmc): 160 mM
[3]
  phase behaviour of aqueous system: one single liquid phase at all compositions
